Laboratory results reported in patent US20060142348A1, “Aryl sulfonamide peri-substituted bicyclics for occlusive artery disease” (deCODE Chemistry, Inc., priority 2004, published 2006).

Target: T1, prostanoid EP3 receptors (Homo sapiens, UniProt P43115)
T1 sequence (P43115 1-365 isoform P43115-3): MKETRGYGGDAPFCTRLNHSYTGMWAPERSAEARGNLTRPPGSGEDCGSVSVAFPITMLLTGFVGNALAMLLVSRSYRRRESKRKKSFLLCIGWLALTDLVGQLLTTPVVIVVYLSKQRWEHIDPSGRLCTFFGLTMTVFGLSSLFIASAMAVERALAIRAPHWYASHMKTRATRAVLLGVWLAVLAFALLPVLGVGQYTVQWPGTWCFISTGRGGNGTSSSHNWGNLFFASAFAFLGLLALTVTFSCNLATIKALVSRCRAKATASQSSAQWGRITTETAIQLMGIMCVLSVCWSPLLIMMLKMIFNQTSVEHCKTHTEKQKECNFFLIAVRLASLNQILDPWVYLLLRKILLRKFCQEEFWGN
Experiment: binding on prostanoid EP3 receptors (method of Abramovitz et al.)
Conditions: read-out: Activity (EP3 receptor binding IC50)
Experimental: The compounds of the invention may be assayed for their binding on prostanoid EP3 receptors according to the method of Abramovitz et al. [Bioch. Biophys. Actas 1473, 285-293 (2000)]. All of the examples in the tables below have been synthesized, characterized and tested for EP3 receptor binding.
The compounds of the invention were assayed for their binding on prostanoid EP3 receptors according to the method of Abramovitz et al. [Bioch. Biophys. Acta, 1473, 285-293 (2000)]. […] Compounds with IC50<1 μM are shown as +++; compounds with IC50<1-10 μM are shown as ++; and compounds with IC50>10 μM are shown as +.

| Structure (SMILES) | IC50 |
| --- | --- |
| Cc1cn(Cc2ccc(Cl)cc2Cl)c2c(-c3nnc(NC(=O)c4ccno4)o3)cc(F)cc12 [Compound B24, Isoxazole-5-carboxylic acid {5-[1-(2,4-dichloro-benzyl)-5-fluoro-3-methyl-1H-indol-7-yl]-[1,3,4]oxadiazol-2-yl}-amide] | 1000 to 10000 nM |
| Cc1cn(Cc2ccc(F)c(F)c2)c2c(-c3ccc(NS(C)(=O)=O)cc3)cc(F)cc12 [Compound B06, N-{4-[1-(3,4-Difluoro-benzyl)-5-fluoro-3-methyl-1H-indol-7-yl]-phenyl}-methanesulfonamide] | 1000 to 10000 nM |
| Cc1cn(Cc2ccc(Cl)cc2Cl)c2c(-c3nnc(NS(=O)(=O)c4cc(Cl)c(Cl)s4)o3)cc(F)cc12 [Compound B13, 4,5-Dichloro-thiophene-2-sulfonic acid {5-[1-(2,4-dichloro-benzyl)-5-fluoro-3-methyl-1H-indol-7-yl]-[1,3,4]oxadiazol-2-yl}-amide] | < 1000 nM |
| Cn1cc(Cc2ccc3ccccc3c2)c2c(-c3ccc(NS(=O)(=O)C(F)(F)F)cc3)cccc21 [Compound B08, C,C,C-Trifluoro-N-[4-(1-methyl-3-naphthalen-2-ylmethyl-1H-indol-4-yl)-phenyl]-methanesulfonamide] | 1000 to 10000 nM |
| Cn1cc(-c2cc(NS(=O)(=O)c3ccc(F)c(F)c3)no2)c2c(Oc3ccc4ccccc4c3)cccc21 [Compound B45, 3,4-Difluoro-N-{5-[1-methyl-4-(naphthalen-2-yloxy)-1H-indol-3-yl]-isoxazol-3-yl}-benzenesulfonamide] | < 1000 nM |
| Cc1cn(Cc2ccc(Cl)cc2Cl)c2c(-c3nnc(NC(=O)c4cc(Cl)cc(Cl)c4)o3)cc(F)cc12 [Compound B25, 3,5-Dichloro-N-{5-[1-(2,4-dichloro-benzyl)-5-fluoro-3-methyl-1H-indol-7-yl]-[1,3,4]oxadiazol-2-yl}-benzamide] | > 10000 nM |
| Cc1cn(Cc2ccc3ccccc3c2)c2c(-c3cc(NS(=O)(=O)c4ccc(F)c(F)c4)no3)cc(F)cc12 [Compound B38, 3,4-Difluoro-N-[5-(5-fluoro-3-methyl-1-naphthalen-2-ylmethyl-1H-indol-7-yl)-isoxazol-3-yl]-benzenesulfonamide] | < 1000 nM |
| Cc1cn(Cc2ccc(F)c(F)c2)c2c(-c3cc(NS(=O)(=O)c4cc(Cl)c(Cl)s4)no3)cc(F)cc12 [Compound B31, 4,5-Dichloro-thiophene-2-sulfonic acid {5-[1-(3,4-difluoro-benzyl)-5-fluoro-3-methyl-1H-indol-7-yl]-isoxazol-3-yl}-amide] | < 1000 nM |
| Cc1cn(Cc2ccc3ccccc3c2)c2c(-c3cc(NS(=O)(=O)c4cc(F)c(F)cc4F)no3)cc(F)cc12 [Compound B39, 2,4,5-Trifluoro-N-[5-(5-fluoro-3-methyl-1-naphthalen-2-ylmethyl-1H-indol-7-yl)-isoxazol-3-yl]-benzenesulfonamide] | < 1000 nM |
| Cc1cn(Cc2ccc(Cl)cc2Cl)c2c(-c3nnc(NS(=O)(=O)c4ccc(F)c(F)c4)o3)cc(F)cc12 [Compound B19, N-{5-[1-(2,4-Dichloro-benzyl)-5-fluoro-3-methyl-1H-indol-7-yl]-[1,3,4]oxadiazol-2-yl}-3,4-difluoro-benzenesulfonamide] | < 1000 nM |
| Cc1cn(Cc2ccc(F)c(F)c2)c2c(-c3ccc(NS(=O)(=O)C(F)(F)F)cc3)cc(F)cc12 [Compound B07, N-{4-[1-(3,4-Difluoro-benzyl)-5-fluoro-3-methyl-1H-indol-7-yl]-phenyl}-C,C,C-trifluoro-methanesulfonamide] | > 10000 nM |

Other lines, results leading:

| IC50 | Structure (SMILES) |
| --- | --- |
| < 1000 nM | Cc1cn(Cc2ccc3ccccc3c2)c2c(-c3cc(NS(=O)(=O)c4ccc(Cl)c(Cl)c4)no3)cc(F)cc12 [Compound B40, 3,4-Dichloro-N-[5-(5-fluoro-3-methyl-1-naphthalen-2-ylmethyl-1H-indol-7-yl)-isoxazol-3-yl]-benzenesulfonamide] |
| < 1000 nM | Cn1cc(Cc2ccc3ccccc3c2)c2c(-c3cc(NS(=O)(=O)c4cc(Cl)c(Cl)s4)n[nH]3)cccc21 [Compound B01, 4,5-Dichloro-thiophene-2-sulfonic acid [5-(1-methyl-3-naphthalen-2-ylmethyl-1H-indol-4-yl)-1H-pyrazol-3-yl]-amide] |
| 1000 to 10000 nM | Cc1cn(Cc2ccc(Cl)cc2Cl)c2c(-c3nnc(NC(=O)c4ccc(Cl)cc4Cl)o3)cc(F)cc12 [Compound B28, 2,4-Dichloro-N-{5-[1-(2,4-dichloro-benzyl)-5-fluoro-3-methyl-1H-indol-7-yl]-[1,3,4]oxadiazol-2-yl}-benzamide] |
| < 1000 nM | Cc1cn(Cc2ccc(Cl)cc2Cl)c2c(-c3ccc(NS(=O)(=O)c4cc(Cl)c(Cl)s4)nc3)cc(F)cc12 [Compound B46, 4,5-Dichloro-thiophene-2-sulfonic acid {5-[1-(2,4-dichloro-benzyl)-5-fluoro-3-methyl-1H-indol-7-yl]-pyridin-2-yl}-amide] |
| < 1000 nM | Cc1cn(Cc2ccc3ccccc3c2)c2c(-c3cc(NS(=O)(=O)c4cc(Cl)c(Cl)s4)no3)cc(F)cc12 [Compound B41] |
